The nature of this data set: in vitro. Type of data set: in vitro ADME. The conditions noted are these: human. The method, then: The bidirectional permeability of compounds across the Caco-2 cell monolayer was assessed. The Caco-2 model is a widely used in vitro model for small intestinal absorption and potential for efflux.
Cell culture. Caco-2 cells were grown in DMEM supplemented with 10% fetal bovine serum (FBS), 1% Penicillin-Streptomycin and 1% MEM NEAA. The cells were incubated at 37° C., 5% CO2/95% air and saturated humidity. After reaching 80-90% confluency, the cells were gently detached with trypsin. Cells at passage 39 were seeded on the 24-well BD insert system at the density of 8×10^4 cells/cm^2 and cultured for 19 days with medium changed every 2-3 days. Measure the transepithelial electrical resistance (TEER) value of each well. The wells can be used only when their TEER values are greater than 600 Ohms/cm^2.
Transport assay. After removing the cell culture medium from the 24-well insert plate, the cells were rinsed with warm transport buffer. Appropriate dosing and receiving solutions were applied to the donor and receiver chambers to initiate the transport assay in apical to basolateral (A to B) or basolateral to apical (B to A) directions ([…] for apical and basolateral wells, respectively). Duplicate wells in each direction were used for the test compound and control compound. The plate was incubated in CO2 incubator at 37° C., with 5% CO2/95% air and saturated humidity without shaking. The sample after 10-minute incubation was used as the T0 sample, and the sample after 90-minute incubation was used as the T90 sample. To and T90 samples were collected from the donor and receiver side of each well at the designed timepoint, mixed with the transport buffer and acetonitrile/MeOH (1:1, v/v) and the internal standard for LC/MS/MS analysis. All samples were vortexed and centrifuged at 4000 rpm at 4° C. for 15 minutes, diluted with pure water and stored at 4° C. before bioanalysis by LC/MS/MS.
Sample analysis. The concentrations of test compounds and control compounds in Caco-2 cells were quantitatively determined by LC/MS/MS method after protein precipitation.
Calculations. The apparent permeability (Papp, cm/s), efflux ratio (ER) and recovery parameters were calculated for Caco-2 drug transport assay using the following equations:
[formula] [formula] where VR is the solution volume in the receiver chamber (0.4 mL on the apical side, 1.2 mL on the basolateral side); Area is the surface area for the insert membrane, i.e., 0.3 cm^2 for the area of the monolayer; Time is incubation time, expressed in seconds, i.e., 5400 s (90 min) for the current experiment; Co is the initial concentration of test compound or peak area ratio of control compounds in the donor chamber (μM); VD is the volume in the donor chambers (0.4 mL on the apical side, 1.2 mL on the basolateral side); CD and CR are the final concentrations of test compounds or peak area ratio of control compounds in donor and receiver chambers, respectively.
Compounds with Papp<1.0 are classified as low permeability, Papp between 1-10 are classified as medium permeability, and Papp≥10 are classified as high permeability. An efflux ratio (ER)>2 indicates the compounds are potential substrates for intestinal cell efflux transporters.

[1] abbreviates: Caco-2 monolayer, apical to basolateral, 90-minute incubation, read-out: Papp, A-B.
Where [2] appears, read: Caco-2 monolayer, basolateral to apical, 90-minute incubation, read-out: Papp, B-A.
The mark [3] stands for this setting: Caco-2 monolayer, ER>2 indicates potential efflux transporter substrate, read-out: ER (efflux ratio).

Like-named read-outs stand apart in the source and are kept apart here.

Regarding `CC(=O)O[C@H]1[C@@H](O)[C@](C#N)(c2ccc3c(N)ncnn23)O[C@@H]1COC(=O)CC1CCCCC1` [Compound 29, ((2R,3S,4R,5R)-3-acetoxy-5-(4-aminopyrrolo[2,1-f][1,2,4]triazin-7-yl)-5-cyano-4-hydroxytetrahydrofuran-2-yl)methyl 2-cyclohexylacetate], for the setting “Caco-2”, the Papp A→B at 90 min turned out to be 2 ×10⁻⁶ cm/s, the Papp B→A at 90 min turned out to be 2.1 ×10⁻⁶ cm/s and the efflux ratio at 90 min was 1.1.
Turning to `CC(C)C(=O)O[C@H]1[C@@H](O)[C@](C#N)(c2ccc3c(N)ncnn23)O[C@@H]1COC(=O)CC1CCCCC1` [Compound 30, (2R,3S,4R,5R)-5-(4-aminopyrrolo[2,1-f][1,2,4]triazin-7-yl)-5-cyano-2-((2-cyclohexylacetoxy)methyl)-4-hydroxytetrahydrofuran-3-yl isobutyrate], under “Caco-2”, the Papp A→B at 90 min stood at 7.3 ×10⁻⁶ cm/s, the Papp B→A at 90 min was found to be 7.1 ×10⁻⁶ cm/s and the efflux ratio at 90 min was determined as 1.
With `CCC(=O)O[C@H]1[C@@H](O)[C@](C#N)(c2ccc3c(N)ncnn23)O[C@@H]1COC(=O)CC1CCCCC1` [Compound 31, (2R,3S,4R,5R)-5-(4-aminopyrrolo[2,1-f][1,2,4]triazin-7-yl)-5-cyano-2-((2-cyclohexylacetoxy)methyl)-4-hydroxytetrahydrofuran-3-yl propionate], where the note is “Caco-2”, the Papp A→B at 90 min was 5.6 ×10⁻⁶ cm/s, the Papp B→A at 90 min came to 5.6 ×10⁻⁶ cm/s and the efflux ratio at 90 min was found to be 1.
`CC(C)(C)C(=O)OCO[C@H]1[C@@H](O)[C@](C#N)(c2ccc3c(N)ncnn23)O[C@@H]1COC(=O)CC1CCCCC1` [Compound 32, (((2R,3S,4R,5R)-5-(4-aminopyrrolo[2,1-f][1,2,4]triazin-7-yl)-5-cyano-2-((2-cyclohexylacetoxy)methyl)-4-hydroxytetrahydrofuran-3-yl)oxy)methyl pivalate]: under “Caco-2”, the Papp A→B at 90 min came out at 6.9 ×10⁻⁶ cm/s, the Papp B→A at 90 min stood at 5.5 ×10⁻⁶ cm/s and the efflux ratio at 90 min amounted to 0.8.
For `CC(C)[C@H](N)C(=O)OC[C@H]1O[C@@](C#N)(c2ccc3c(N)ncnn23)[C@H](O)[C@@H]1OC(=O)CC1CCCCC1` [Compound 34, ((2R,3S,4R,5R)-5-(4-aminopyrrolo[2,1-f][1,2,4]triazin-7-yl)-5-cyano-3-(2-cyclohexylacetoxy)-4-hydroxytetrahydrofuran-2-yl)methyl L-valinate] the same measures were 1.6 ×10⁻⁶ cm/s, 4.8 ×10⁻⁶ cm/s and 3.
As for `CC(C)[C@H](N)C(=O)OC[C@H]1O[C@@](C#N)(c2ccc3c(N)ncnn23)[C@H](O)[C@@H]1OC(=O)Cc1ccccc1` [Compound 36, ((2R,3S,4R,5R)-5-(4-aminopyrrolo[2,1-f][1,2,4]triazin-7-yl)-5-cyano-4-hydroxy-3-(2-phenylacetoxy)tetrahydrofuran-2-yl)methyl L-valinate], under setting [1], the apical-to-basolateral permeability (Papp A→B) at 90 min is 1.1 ×10⁻⁶ cm/s. The Papp B→A at 90 min under setting [2] came out at 10.3 ×10⁻⁶ cm/s. Also, the efflux ratio at 90 min under setting [3] came to 9.8.
As to `CC(=O)O[C@H]1[C@@H](O)[C@](C#N)(c2ccc3c(N)ncnn23)O[C@@H]1COC(=O)[C@@H](N)C(C)C` [Compound 37, ((2R,3S,4R,5R)-3-acetoxy-5-(4-aminopyrrolo[2,1-f][1,2,4]triazin-7-yl)-5-cyano-4-hydroxytetrahydrofuran-2-yl)methyl L-valinate], for the setting “Caco-2”, the Papp A→B at 90 min was 0.37 ×10⁻⁶ cm/s, the Papp B→A at 90 min amounted to 0.12 ×10⁻⁶ cm/s and the efflux ratio at 90 min was determined as 0.33.
As to `CC(C)C(=O)O[C@H]1[C@@H](O)[C@](C#N)(c2ccc3c(N)ncnn23)O[C@@H]1COC(=O)[C@@H](N)C(C)C` [Compound 38, ((2R,3S,4R,5R)-5-(4-aminopyrrolo[2,1-f][1,2,4]triazin-7-yl)-5-cyano-4-hydroxy-3-(isobutyryloxy)tetrahydrofuran-2-yl)methyl L-valinate], for the setting “Caco-2”, the Papp A→B at 90 min came out at 0.22 ×10⁻⁶ cm/s, the Papp B→A at 90 min turned out to be 3.3 ×10⁻⁶ cm/s and the efflux ratio at 90 min was 15.
As to `CCC(=O)O[C@H]1[C@@H](O)[C@](C#N)(c2ccc3c(N)ncnn23)O[C@@H]1COC(=O)[C@@H](N)C(C)C` [Compound 39, ((2R,3S,4R,5R)-5-(4-aminopyrrolo[2,1-f][1,2,4]triazin-7-yl)-5-cyano-4-hydroxy-3-(propionyloxy)tetrahydrofuran-2-yl)methyl L-valinate], under setting [1], the Papp A→B at 90 min was 0.23 ×10⁻⁶ cm/s. Besides, the Papp B→A at 90 min under setting [2] worked out at 2.3 ×10⁻⁶ cm/s. In addition, the efflux ratio at 90 min under setting [3] turned out to be 10.
In the case of `CC(C)CC(=O)O[C@H]1[C@@H](O)[C@](C#N)(c2ccc3c(N)ncnn23)O[C@@H]1COC(=O)Cc1ccccc1` [Compound 41, (2R,3S,4R,5R)-5-(4-aminopyrrolo[2,1-f][1,2,4]triazin-7-yl)-5-cyano-4-hydroxy-2-((2-phenylacetoxy)methyl)tetrahydrofuran-3-yl 3-methylbutanoate], the apical-to-basolateral permeability (Papp A→B) at 90 min under setting [1] turned out to be 19 ×10⁻⁶ cm/s. For the same compound, the Papp B→A at 90 min under setting [2] was determined as 31 ×10⁻⁶ cm/s. Besides, the efflux ratio at 90 min under setting [3] was 1.6.
For `CC(C)[C@H](N)C(=O)O[C@H]1[C@@H](O)[C@](C#N)(c2ccc3c(N)ncnn23)O[C@@H]1COC(=O)Cc1ccccc1` [Compound 43, (2R,3S,4R,5R)-5-{4-aminopyrrolo[2,1-f][1,2,4]triazin-7-yl}-5-cyano-4-hydroxy-2-{[(2-phenylacetyl)oxy]methyl}oxolan-3-yl (2S)-2-amino-3-methylbutanoate] the same measures were 0.74 ×10⁻⁶ cm/s, 0.22 ×10⁻⁶ cm/s and 0.3.
Take `N#C[C@@]1(c2ccc3c(N)ncnn23)O[C@H](COC(=O)Cc2ccccc2)[C@@H](OC(=O)Cc2ccccc2)[C@H]1O` [Compound 44, (2R,3S,4R,5R)-5-(4-aminopyrrolo[2,1-f][1,2,4]triazin-7-yl)-5-cyano-4-hydroxy-2-((2-phenylacetoxy)methyl)tetrahydrofuran-3-yl 2-phenylacetate]: the Papp A→B at 90 min under setting [1] came out at 9.8 ×10⁻⁶ cm/s. The Papp B→A at 90 min under setting [2] came to 25 ×10⁻⁶ cm/s. Under setting [3], the efflux ratio at 90 min came to 2.5.
The like results for `CC(=O)O[C@H]1[C@@H](O)[C@](C#N)(c2ccc3c(N)ncnn23)O[C@@H]1COC(=O)Cc1ccccc1` [Compound 45, ((2R,3S,4R,5R)-3-acetoxy-5-(4-aminopyrrolo[2,1-f][1,2,4]triazin-7-yl)-5-cyano-4-hydroxytetrahydrofuran-2-yl)methyl 2-phenylacetate] were, in that order, 0.8 ×10⁻⁶ cm/s, 3.4 ×10⁻⁶ cm/s and 4.3.
On to `CC(C)C(=O)O[C@H]1[C@@H](O)[C@](C#N)(c2ccc3c(N)ncnn23)O[C@@H]1COC(=O)Cc1ccccc1` [Compound 46, (2R,3S,4R,5R)-5-(4-aminopyrrolo[2,1-f][1,2,4]triazin-7-yl)-5-cyano-4-hydroxy-2-((2-phenylacetoxy)methyl)tetrahydrofuran-3-yl isobutyrate], for which the Papp A→B at 90 min under setting [1] worked out at 2.7 ×10⁻⁶ cm/s. In addition, under setting [2], the Papp B→A at 90 min worked out at 4.8 ×10⁻⁶ cm/s. Besides, the efflux ratio at 90 min under setting [3] stood at 1.8.
Regarding `CCC(=O)O[C@H]1[C@@H](O)[C@](C#N)(c2ccc3c(N)ncnn23)O[C@@H]1COC(=O)Cc1ccccc1` [Compound 47, (2R,3S,4R,5R)-5-(4-aminopyrrolo[2,1-f][1,2,4]triazin-7-yl)-5-cyano-4-hydroxy-2-((2-phenylacetoxy)methyl)tetrahydrofuran-3-yl propionate], the Papp A→B at 90 min under setting [1] stood at 2 ×10⁻⁶ cm/s. The Papp B→A at 90 min under setting [2] was 5.1 ×10⁻⁶ cm/s. In addition, the efflux ratio at 90 min under setting [3] came to 2.5.

For the origin of these results see patent publication US12102648B2, “Orally-bioavailable nucleoside analogs” (priority 2021, dated 2024).
